Measured values reported in BindingDB's records for doi:10.3109/14756366.2013.777717 (Tokushima Bunri University, 2014).

Target: T1, Sphingomyelinase C (Bacillus cereus, UniProt P11889)
T1 sequence (P11889 whole entry): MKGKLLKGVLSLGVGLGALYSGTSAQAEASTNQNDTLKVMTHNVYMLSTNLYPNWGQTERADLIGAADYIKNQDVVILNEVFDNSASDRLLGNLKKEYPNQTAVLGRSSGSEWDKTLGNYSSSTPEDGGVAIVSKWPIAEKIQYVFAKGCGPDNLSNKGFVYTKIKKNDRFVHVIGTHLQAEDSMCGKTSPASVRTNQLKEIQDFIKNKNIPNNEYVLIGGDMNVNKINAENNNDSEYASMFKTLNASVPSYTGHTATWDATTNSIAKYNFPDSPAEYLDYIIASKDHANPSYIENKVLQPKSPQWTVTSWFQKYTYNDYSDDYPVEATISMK
Assay: Turbidometric Assay
Conditions: pH 7.5; 37 °C
Description: Briefly, Bc-SMase (50 ng/ml) was treated at 37 °C for 60 min with various compounds that were solubilized in dimethylacetoamide. The reaction mixture was incubated at 37 °C for 5 h with 1.0mM SM from bovine brain (Nacalai, Kyoto, Japan) that was solubilized in a solution containing 20mM Tris-HCl (pH 7.5), 1.0% sodium cholate, and 1mM MgCl2. The turbidity of the reaction mixture was analysed by absorption spectrometer at 620 nm.

| SMILES | IC50 [µM] | Ki [µM] |
| --- | --- | --- |
| CCCCCCCCCCCCC/C=C/[C@@H](O)[C@H](COCc1cccc(-c2ccccn2)n1)NC(=O)CCCCC [RY221B-a] | 1.2 | 5.2 |
| CCCCCCCCCCCCC/C=C/[C@@H](Oc1cccc(-c2ccccn2)n1)[C@H](CO)NC(=O)CCCCC [RY221B-b] | > 20 | – |
| CCCCCC(=O)N[C@@H](COCc1cccc(-c2ccccn2)n1)[C@H](O)/C=C/COc1ccc(C(=O)c2ccccc2)cc1 [SMY-469a] | > 20 | – |
| CCCCCCCCCCCCC/C=C/[C@@H](O)[C@@H](N)COCc1cccc(-c2ccccn2)n1 [SMY-471] | 0.9 | 2.8 |
| CCCCCC(=O)N[C@@H](COCc1cccc(-c2ccccn2)n1)[C@H](O)c1ccccc1 [SMY-540] | 0.8 | 1.3 |
| CCCCCCCCCCCCC/C=C/[C@@H](O)[C@H](COCc1cccc(-c2ccccn2)n1)NC(=O)OC(C)(C)C [SMY-579] | 18.3 | – |
| CCCCCCCCCCCCCCC[C@@H](O)[C@H](COCc1cccc(-c2ccccn2)n1)NC(=O)CCCCC [SMY-584] | > 20 | – |
| CCCCCCCCCCCCC/C=C/[C@@H](Oc1cccc(-c2ccccn2)n1)[C@H](COCc1cccc(-c2ccccn2)n1)NC(=O)CCCCC [SMY-610] | 3.3 | – |
| CCCCCCCCCCCCC/C=C/[C@@H](O)[C@H](COCc1cccc(-c2ccccn2)c1)NC(=O)CCCCC [SMY-632] | > 20 | – |
| CCCCCC(=O)OC[C@H](COCc1cccc(-c2ccccn2)n1)OC(=O)CCCCC [TOM-2-7] | > 20 | – |
| CCCCCCOC[C@H](COCc1cccc(-c2ccccn2)n1)OCCCCCC [TOM-2-18] | > 20 | – |
| CCCCCCCCCCCCCCCCOC[C@H](COCc1cccc(-c2ccccn2)n1)OCCCCCCCCCCCCCCCC [TOM-2-37] | > 20 | – |
